{"source": "patent US6486326B2", "about": "“iso-CBI and iso-CI analogs of CC-1065 duocarmycins” (The Scripps Research Institute, priority 1997, dated 2002)", "key": {"L1210": {"system": "L1210", "assay": "In vitro cytotoxic activity", "type": "cell-based"}, "[1]": {"assay": "Stability of neat sample to ambient light and storage", "type": "physicochemical", "conditions": "48 h", "description": "Exclusive spirocyclization with cyclopropane formation was observed, and no competitive O-alkylation leading to 36 was detected. However, prolonged exposure of neat 31 to ambient light at 25° C. […] Thus, the handling and storage of the iso-CBI based agents were conducted minimizing their exposure to light typically at subzero temperatures."}, "[2]": {"assay": "Solvolysis reactivity (UV, 50% CH3OH-aqueous buffer, pH 3)", "type": "physicochemical", "conditions": "for k, solvolysis rate constant: pH 3, 25° C., CH3OH/aqueous buffer", "description": "The solvolysis was followed spectrophotometrically by UV with the disappearance of the long-wavelength absorption band of the iso-CBI chromophore (397 nm), FIG. 3.\nSolvolysis Reactivity: N-BOC-iso-CBI (31, 0.2 mg) was dissolved in CH3OH (1.5 mL) and mixed with pH 3 aqueous buffer (1.5 mL). The buffer contained 4:1:20 (v/v/v) 0.1 M citric acid, 0.2 M Na2HPO4, and H2O, respectively. The solvolysis solution was sealed and kept at 25° C. protected from light. The UV spectrum was measured at regular intervals every 1 h during the first 24 h, every 4 during the next 72 h, and every 12 h for an additional week. The decrease in the long wavelength absorption at 397 nm was monitored, FIG. 3. […] (FIG. 9).\nSimilarly, N—CO2Me-iso-CBI (33, 0.2 mg) was dissolved in CH3OH (1.5 mL) and mixed with pH 3 aqueous buffer (1.5 mL). The solvolysis solution was sealed and kept at 25° C. protected from light. The UV spectrum was measured at regular intervals every 1 h during the first 24 h, every 4 h during the next 72 h, and every 12 h for an additional week. The decrease in the long wavelength absorption at 395 nm was monitored, FIG. 3.\nSimilarly, 35 (0.2 mg) was dissolved in CH3OH (1.5 mL) and mixed with pH 3 aqueous buffer (1.5 mL). The solvolysis solution was sealed and kept at 25° C. protected from light. The UV spectrum was measured at regular intervals every 1 h during the first 12 h, every 2 h for the next 24 h, and every 4 h for an additional day. The decrease in the short wavelength absorption at 239 nm was monitored, FIG. 9."}, "calf thymus DNA": {"system": "calf thymus DNA", "assay": "Calf thymus DNA alkylation, quantitation of adenine N3 adduct", "type": "biochemical", "conditions": "4° C.", "description": "This was addressed through a study of the alkylation of calf thymus DNA. Optimized conditions for the alkylation were established for (−)-44 on an analytical scale (100 μg of agent). For this purpose, the long-wavelength UV absorption of the agent and the adduct provided a useful quantitative measure of the adenine adduct, unreacted starting material and any side products (solvolysis or rearrangement), Table 3. Analytical HPLC analysis was used to confirm the identity of the products through correlation of retention times and UV spectral data with authentic materials. The preparative DNA alkylation reaction and subsequent isolation of (+)-66 was carried out under conditions determined to provide complete consumption of the agent in the presence of a large excess of DNA Thus, extraction (EtOAc) of the aqueous buffer solution containing calf thymus DNA following alkylation (4° C., 72 h, 150 bp) afforded no recovered (−)-44, and only a small amount (<5%) of the rearranged product 65. Conducting the reaction at 4° C. in the presence of a large excess of DNA precluded competitive solvolysis. Thermal treatment of the alkylated DNA in aqueous 10 mM sodium phosphate buffer (100° C., 30 min, pH 7.0) followed by EtOAc extraction provided 66 in 90-95% conversion, ≧95% purity (by HPLC). Repeating this thermal treatment provided little or no additional adduct. No trace of a competing guanine adduct could be detected. This high conversion to a single adduct established that 44 participates exclusively in the adenine N3 alkylation reaction under the conditions examined."}, "[3]": {"system": "w794 DNA (SV40 DNA segment, 144 bp)", "assay": "DNA alkylation selectivity and efficiency, thermally-induced strand cleavage of w794 DNA", "type": "biochemical", "description": "FIG. 5 illustrates thermally-induced strand cleavage of w794 DNA (SV40 DNA segment, 144 bp, nucleotide nos. 138-5238); DNA-agent incubation for 24 hours at 25° C., removal of unbound agent and 30 minutes of thermolysis (100° C.), followed by denaturing 8% PAGE and autoradiography, lane 1, control DNA; lanes 2-5, Sanger G, C, A, and T sequencing reactions; lanes 6-7 (−)-iso-CBI-TMI (1×10^−3 and 1×10^−4 M); lanes 8-9, (+)-CBI-TMI (1×10^−5 and 1×10^−4 M); lanes 10-11, (+)-duocarmycin SA (1×10^−5 and 1×10^−6).\nFIG. 7 illustrates thermally-induced strand cleavage of w794 DNA (SV40 DNA segment, 144 bp, nucleotide nos. 138-5238); DNA-agent incubation for 24 h at 25° C., removal of unbound agent and 30 min of thermolysis (100° C.), followed by denaturing 8% PAGE and autoradiography; lane 1, control DNA; lanes 2-5, Sanger G, C, A, and T sequencing reactions; lanes 6-8 (+)-duocarmycin SA (1×10^−4 to 1×10^−6 M); lanes9-11, seco-iso-CI-TMI (1×10^−3 to 1×10^−5 M).\nDNA Alkylation Selectivity and Efficiency: The DNA alkylation properties of the agents were examined within w794 and w836 duplex DNA for which comparative results are available for related agents. (Boger, D. L., et al., J. Am. Chem. Soc. 1994, 116, 11335; Boger, D. L., et al., J. Am. Chem. Soc. 1994, 116, 6461; and Boger, D. L., et al., J. Am. Chem. Soc. 1995, 117, 11647) The alkylation site identification and the assessment of the relative selectivity among the available sites were obtained by thermally-induced strand cleavage of the singly 5′ end-labeled duplex DNA after exposure to the agents. Following treatment of the end-labeled duplex DNA with a range of agent concentrations and temperatures in the dark, the unbound agent was removed by EtOH precipitation of the DNA Redissolution of the DNA in aqueous buffer, thermolysis (100° C., 30 min) to induce strand cleavage at the sites of DNA alkylation, denaturing high-resolution polyacrylamide gel electrophoresis (PAGE) adjacent to Sanger dideoxynucleotide sequencing standards, and autoradiography led to identification of the DNA cleavage and alkylation sites. The full details of this procedure have been disclosed elsewhere. (Boger, D. L., et al., Tetrahedron 1991, 47, 2661.)\nDNA Alkylation Studies: Selectivity and Efficiency: Eppendorf tubes containing singly ^32p 5′-end-labeled double-stranded DNA (9 μL) (Boger, D. L., et al., Tetrahedron 1991, 47, 2661.) in TE buffer (10 mM Tris, 1 mM EDTA, pH 7.5) were treated with the agents in DMSO (1 μL, at the specified concentrations). The solutions were mixed by vortexing and brief centrifugation and subsequently incubated at 4° C., 25° C. or 37° C. for 24-72 h. […]"}, "[4]": {"conditions": "pH 3; comparison agents 55-61; cited from earlier work"}, "[5]": {"conditions": "cytotoxic activity, read-out: IC50"}, "[6]": {"conditions": "L1210, seco precursor, read-out: IC50, L1210"}}, "note": "pIC50: −log10 of the molar value. “And” between values parts separate entries of the source, which are not always exact repeats. Equal values may be shown once. Read-outs that look alike come from different tables or passages of the source."}
{"compound": "2-[((E)-3-(2-Methoxyphenyl)propenyl)carbonyl]-1,2,9,9a-tetrahydrocyclopropa[c]benzo[f]indol-1-one [compound 48]", "values": [{"measurement": "cytotoxic potency, less potent than 44 and 46", "setting": "L1210", "result": "40-50 ×"}]}
{"compound": "CC(C)(C)OC(=O)N1CC2CC23C(=O)c2ccccc2C=C13", "note": "(racemic) [compound 31, 2-(tert-Butyloxycarbonyl)-1,2,9,9a-tetrahydrocyclopropa[c]benzo[f]indol-8-one]", "values": [{"measurement": "stability of neat sample exposed to ambient light", "setting": "[1]; ambient light, 25° C.", "result": "carbonylcyclopropane rearrangement to form 36"}, {"measurement": "stability of neat sample protected from light", "setting": "[1]; protected from light by foil", "result": "remained unchanged"}, {"measurement": "solvolysis reactivity relative to N-BOC-CBI / corresponding CBI-based agents (more reactive, less stable)", "setting": "[2]; pH 3", "result": 5, "unit": "×"}, {"measurement": "k, solvolysis rate constant", "setting": "[2]", "result": "6.98e-06 s⁻¹ and 6.97e-06 s⁻¹"}, {"measurement": "cytotoxic potency of unnatural enantiomer relative to natural enantiomer (slightly more potent)", "setting": "L1210", "result": "1-2 ×"}]}
{"compound": "COC(=O)N1CC2CC23C(=O)c2ccccc2C=C13", "note": "(racemic) [compound 33, 2-(Methoxycarbonyl)-1,2,9,9a-tetrahydrocyclopropa[c]benzo[f]indol-8-one]", "values": [{"measurement": "k, solvolysis rate constant", "setting": "[2]", "result": "6.4e-06", "unit": "s⁻¹"}]}
{"compound": "COc1cc2cc(C(=O)N3CC4CC45C(=O)c4ccccc4C=C35)[nH]c2c(OC)c1OC", "note": "(racemic) [compound 44, 2-[(5,6,7-Trimethoxyindol-2-yl)carbonyl]-1,2,9,9a-tetrahydrocyclopropa[c]benzo[f]indol-8-one]", "values": [{"measurement": "adenine adduct 66", "setting": "calf thymus DNA; 72 h, 75 base-pair equiv, analytical scale, HPLC/UV", "result": 94, "unit": "%"}, {"measurement": "adenine adduct 66", "setting": "calf thymus DNA; 72 h, 150 base-pair equiv, analytical scale, HPLC/UV", "result": 95, "unit": "%"}, {"measurement": "adenine adduct 66", "setting": "calf thymus DNA; 72 h, 150 base-pair equiv, preparative scale, isolation and weight", "result": 92, "unit": "%"}, {"measurement": "adenine adduct 66", "setting": "calf thymus DNA; 120 h, 150 base-pair equiv, preparative scale, isolation and weight", "result": 95, "unit": "%"}, {"measurement": "DNA alkylation sequence selectivity compared with (+)-duocarmycin SA", "setting": "[3]", "result": "same sequence selectivity"}, {"measurement": "cytotoxic potency, 44 compared with 46", "setting": "L1210", "result": "equipotent"}]}
{"compound": "COc1ccc2[nH]c(C(=O)N3CC4CC45C(=O)c4ccccc4C=C35)cc2c1", "note": "(racemic) [compound 46, 2-[(5-Methoxyindol-2-yl)carbonyl]-1,2,9,9a-tetrahydrocyclopropa[c]benzo[f]indol-8-one]", "values": [{"measurement": "cytotoxic potency, 44 compared with 46", "setting": "L1210", "result": "equipotent"}]}
{"compound": "NC(=O)N1CCc2c1ccc1[nH]c(C(=O)N3CC4CC45C(=O)c4ccccc4C=C35)cc21", "note": "(racemic) [compound 52, 2-[(3-Carbamoyl-1,2-dihydro-3H-pyrrolo[3,2-e]indol-7-yl)carbonyl]-2,9,9a-tetrahydrocyclopropa[c]benzo[f]indol-8-one]", "values": [{"measurement": "pIC50", "setting": "L1210; [5]", "result": 9.70}]}
{"compound": "NC(=O)N1CCc2c1ccc1[nH]c(C(=O)N3CCc4c3ccc3[nH]c(C(=O)N5CC6CC67C(=O)c6ccccc6C=C57)cc43)cc21", "note": "(racemic) [compound 54, 2-{[3-[N-(3-Carbamoyl-1,2-dihydro-3H-pyrrolo[3,2-e]indol-7-yl)carbonyl]-1,2-dihydro-3H-pyrrolo[3,2-e]indol-7-yl]carbonyl}-1,2,9,9a-tetrahydrocyclopropa[c]benzo[f]indol-1-one]", "values": [{"measurement": "pIC50", "setting": "L1210; [5]", "result": 10.30}]}
{"compound": "COc1ccc2c(c1)C13CC1CN(C(=O)OC(C)(C)C)C3=CC2=O", "note": "(racemic) [compound 59]", "values": [{"measurement": "k, solvolysis rate constant", "setting": "[4]", "result": "1.75e-06", "unit": "s⁻¹"}]}
{"compound": "CC(C)(C)OC(=O)N1CC2CC23C1=CC(=O)c1ccc(C#N)cc13", "note": "(racemic) [compound 60]", "values": [{"measurement": "k, solvolysis rate constant", "setting": "[4]", "result": "9.9e-07", "unit": "s⁻¹"}]}
{"compound": "CC(C)(C)OC(=O)N1CC2CC23C=CC(=O)C=C13", "note": "(racemic) [compound 61]", "values": [{"measurement": "k, solvolysis rate constant", "setting": "[4]", "result": 0.0198, "unit": "s⁻¹"}]}
{"compound": "CC(C)(C)OC(=O)N1CC(COS(C)(=O)=O)c2c(O)cccc21", "note": "(stereo not shown) [compound 19]", "values": [{"measurement": "pIC50", "setting": "L1210; [6]", "result": 5.00}]}
{"compound": "COc1cc2cc(C(=O)N3CC(COS(C)(=O)=O)c4c(O)cccc43)[nH]c2c(OC)c1OC", "note": "(stereo not shown) [compound 20]", "values": [{"measurement": "DNA alkylation efficiency, less efficient than (+)-duocarmycin SA", "setting": "[3]; 24 h, 25° C., seco agent", "result": 10, "unit": "×"}, {"measurement": "pIC50", "setting": "L1210; [6]", "result": 8.22}]}
{"compound": "O=C1C2=NCC3CC23C(=O)c2ccccc21", "note": "(stereo not shown) [compound 35, 9,9a-1H-Dihydrocyclopropa[c]benzo[f]indol-3,8-dione]", "values": [{"measurement": "solvolysis reactivity relative to 31 or 33 (more reactive)", "setting": "[2]; pH 3", "result": "5-6 ×"}, {"measurement": "k, solvolysis rate constant", "setting": "[2]", "result": "3.8e-05", "unit": "s⁻¹"}]}
{"compound": "Cc1c[nH]c2c1C13CC1CN(C(=O)OC(C)(C)C)C3=CC2=O", "note": "(stereo not shown) [compound 55]", "values": [{"measurement": "k, solvolysis rate constant", "setting": "[4]", "result": "5.26e-06", "unit": "s⁻¹"}]}
{"compound": "COC(=O)C1(C)NC2=C(C1=O)C13CC1CN(C(=O)OC(C)(C)C)C3=CC2=O", "note": "(stereo not shown) [compound 56]", "values": [{"measurement": "k, solvolysis rate constant", "setting": "[4]", "result": "1.75e-05", "unit": "s⁻¹"}]}
{"compound": "COC(=O)c1cc2c([nH]1)C(=O)C=C1N(C(=O)OC(C)(C)C)CC3CC123", "note": "(stereo not shown) [compound 57]", "values": [{"measurement": "k, solvolysis rate constant", "setting": "[4]", "result": "1.08e-06", "unit": "s⁻¹"}]}
{"compound": "CC(C)(C)OC(=O)N1CC2CC23C1=CC(=O)c1ccccc13", "note": "(stereo not shown) [compound 58]", "values": [{"measurement": "k, solvolysis rate constant", "setting": "[4]", "result": "1.45e-06", "unit": "s⁻¹"}]}
